This passage reports Ki results from patent US8952157B2, “Apoptosis-inducing agents for the treatment of cancer and immune and autoimmune diseases” (AbbVie Inc., priority 2008, dated 2015).

A value given as a limit tells only on which side of the number the result lay.

In the test the target is GST-Bcl-2 (Homo sapiens (Human), UniProt P10415). Kind of test: Time Resolved-Fluorescence Resonance Energy Transfer (TR-FRET) Bcl-2 binding assay. Conditions: GST-Bcl-2 1 nM, F-Bak peptide probe 100 nM, Tb-anti-GST antibody 1 nM; Ki by Wang's equation. The procedure, abridged: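 Competition TR-FRET: GST-Bcl-2 with fluorescent Bak peptide probe and Tb-anti-GST antibody, compounds serially diluted from 50 μM (2× start, 10% DMSO).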
Chain of GST-Bcl-2 (P10415 whole entry): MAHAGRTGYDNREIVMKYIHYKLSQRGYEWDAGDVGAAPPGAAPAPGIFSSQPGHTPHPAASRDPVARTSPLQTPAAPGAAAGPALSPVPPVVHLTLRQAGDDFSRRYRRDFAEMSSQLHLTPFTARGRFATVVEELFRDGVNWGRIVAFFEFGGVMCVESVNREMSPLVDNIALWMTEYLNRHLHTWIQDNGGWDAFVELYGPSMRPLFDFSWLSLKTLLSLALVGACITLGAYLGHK
On the technique in general: In TR-FRET formats the signal depends on donor and acceptor labels being close together.

`CC1(C)CCC(CN2CCN(c3ccc(C(=O)NS(=O)(=O)c4ccc(OCC5(F)CCOCC5)c([N+](=O)[O-])c4)c(Oc4cc5cc[nH]c5cc4F)c3)CC2)=C(c2ccc(Cl)cc2)C1` [Example 296, 4-(4-{[2-(4-chlorophenyl)-4,4-dimethylcyclohex-1-en-1-yl]methyl}piperazin-1-yl)-2-[(6-fluoro-1H-indol-5-yl)oxy]-N-({4-[(4-fluorotetrahydro-2H-pyran-4-yl)methoxy]-3-nitrophenyl}sulfonyl)benzamide]: the inhibitory constant (Ki) – broadly, the equilibrium dissociation constant of an inhibitor or competing ligand from its target – is less than 0.01 nM. `CC1(C)CCC(CN2CCN(c3ccc(C(=O)NS(=O)(=O)c4ccc(NCC5CCOCC5)c([N+](=O)[O-])c4)c(Oc4cc(N)nc(Br)c4)c3)CC2)=C(c2ccc(Cl)cc2)C1` [Example 379, 2-[(2-amino-6-bromopyridin-4-yl)oxy]-4-(4-{[2-(4-chlorophenyl)-4,4-dimethylcyclohex-1-en-1-yl]methyl}piperazin-1-yl)-N-({3-nitro-4-[(tetrahydro-2H-pyran-4-ylmethyl)amino]phenyl}sulfonyl)benzamide] yielded a Ki of 17.9 nM. This lies in the double-digit nanomolar range. On to `CN1CCC(Nc2ccc(S(=O)(=O)NC(=O)c3ccc(N4CCN(CC5=C(c6ccc(Cl)cc6)CC(C)(C)OC5)CC4)cc3Oc3cccc(Br)c3)cc2[N+](=O)[O-])CC1` [Example 160, 2-(3-bromophenoxy)-4-(4-{[4-(4-chlorophenyl)-6,6-dimethyl-5,6-dihydro-2H-pyran-3-yl]methyl}piperazin-1-yl)-N-({4-[(1-methylpiperidin-4-yl)amino]-3-nitrophenyl}sulfonyl)benzamide], for which affinity was put at a Ki of 0.028 nM. Next, `CN1CCN(Nc2ccc(S(=O)(=O)NC(=O)c3ccc(N4CCN(CC5=C(c6ccc(Cl)cc6)CC(C)(C)CC5)CC4)cc3Oc3ccc(O)cc3Cl)cc2S(=O)(=O)C(F)(F)F)CC1` [Example 211, 2-(2-chloro-4-hydroxyphenoxy)-4-(4-{[2-(4-chlorophenyl)-4,4-dimethylcyclohex-1-en-1-yl]methyl}piperazin-1-yl)-N-({4-[(4-methylpiperazin-1-yl)amino]-3-[(trifluoromethyl)sulfonyl]phenyl}sulfonyl)benzamide]: 1.34 nM; `O=C(NS(=O)(=O)c1ccc(NCCCN2CCOCC2)c([N+](=O)[O-])c1)c1ccc(N2CCN(Cc3ccccc3-c3ccc(Cl)cc3)CC2)cc1Oc1cccc(OCc2ccccc2)c1` [Example 93, 2-(3-(benzyloxy)phenoxy)-4-(4-((4′-chloro-1,1′-biphenyl-2-yl)methyl)piperazin-1-yl)-N-((4-((3-morpholin-4-ylpropyl)amino)-3-nitrophenyl)sulfonyl)benzamide]: 16.8 nM. Molecule `CC1(C)CCC(CN2CCN(c3ccc(C(=O)NS(=O)(=O)c4ccc(NCC5CCOCC5)c([N+](=O)[O-])c4)c(Oc4cc(Br)nc(NC(=O)OC(C)(C)C)c4)c3)CC2)=C(c2ccc(Cl)cc2)C1` [Example 372, tert-butyl 6-bromo-4-(5-(4-{[2-(4-chlorophenyl)-4,4-dimethylcyclohex-1-en-1-yl]methyl}piperazin-1-yl)-2-{[({3-nitro-4-[(tetrahydro-2H-pyran-4-ylmethyl)amino]phenyl}sulfonyl)amino]carbonyl}phenoxy)pyridin-2-ylcarbamate] gave a Ki of 15 nM. Molecule `Cc1cc2cc(Oc3cc(N4CCN(CC5=C(c6ccc(Cl)cc6)CC(C)(C)CC5)CC4)ccc3C(=O)NS(=O)(=O)c3ccc(NC4CCN(C)CC4)c([N+](=O)[O-])c3)ccc2[nH]1` [Example 3, 4-(4-((2-(4-chlorophenyl)-4,4-dimethylcyclohex-1-en-1-yl)methyl)piperazin-1-yl)-2-((2-methyl-1H-indol-5-yl)oxy)-N-((4-((1-methylpiperidin-4-yl)amino)-3-nitrophenyl)sulfonyl)benzamide] gave a Ki of 0.827 nM.
